ChEMBL document CHEMBL4507296 (2021)
The source made the active and inactive calls. The calls are words filed in the database; no cut-off is given here.

Columns and labels:
[1] = biological target: Casein kinase I isoform delta (Homo sapiens) (UniProt P48730); conditions: Compound concentration 1000.0 nM
[2] = biological target: Mitogen-activated protein kinase 4 (Homo sapiens) (UniProt P31152); conditions: Compound concentration 1000.0 nM
[3] = biological target: Cyclin-dependent kinase 17 (Homo sapiens) (UniProt Q00537); conditions: Compound concentration 1000.0 nM
[4] = biological target: Vascular endothelial growth factor receptor 1 (Homo sapiens) (UniProt P17948); conditions: Compound concentration 1000.0 nM
[5] = biological target: Proto-oncogene tyrosine-protein kinase ROS (Homo sapiens) (UniProt P08922); conditions: Compound concentration 1000.0 nM
[6] = system: Receptor-type tyrosine-protein kinase FLT3 (Homo sapiens), P36888 [D835V]; conditions: Compound concentration 1000.0 nM
[7] = system: Epidermal growth factor receptor (Homo sapiens), P00533 [UNDEFINED MUTATION]; conditions: Compound concentration 1000.0 nM
[8] = biological target: RAF proto-oncogene serine/threonine-protein kinase (Homo sapiens) (UniProt P04049); conditions: Compound concentration 1000.0 nM
[9] = biological target: Mitogen-activated protein kinase 10 (Homo sapiens) (UniProt P53779); conditions: Compound concentration 1000.0 nM
[10] = biological target: Serine/threonine-protein kinase ICK (Homo sapiens) (UniProt Q9UPZ9); conditions: Compound concentration 1000.0 nM
[11] = system: Hepatocyte growth factor receptor (Homo sapiens), P08581 [Y1235D]; conditions: Compound concentration 1000.0 nM
[12] = system: Tyrosine-protein kinase ABL1 (Homo sapiens), P00519 [F317L]; conditions: Compound concentration 1000.0 nM
[13] = biological target: Atypical kinase COQ8A, mitochondrial (Homo sapiens) (UniProt Q8NI60); conditions: Compound concentration 1000.0 nM
Rattus norvegicus = organism: Rattus norvegicus; conditions: Compound concentration 10.0 uM
[14] = biological target: Protein kinase C delta type (Homo sapiens) (UniProt Q05655); conditions: Compound concentration 1000.0 nM
[15] = biological target: Serine/threonine-protein kinase B-raf (Homo sapiens) (UniProt P15056); conditions: Compound concentration 1000.0 nM
[16] = biological target: Serine/threonine-protein kinase haspin (Homo sapiens) (UniProt Q8TF76); conditions: Compound concentration 1000.0 nM
[17] = biological target: Serine/threonine-protein kinase D1 (Homo sapiens) (UniProt Q15139); conditions: Compound concentration 1000.0 nM
[18] = biological target: Cyclin-dependent kinase-like 2 (Homo sapiens) (UniProt Q92772); conditions: Compound concentration 1000.0 nM
[19] = system: Tyrosine-protein kinase ABL1 (Homo sapiens), P00519 [F317I]; conditions: Compound concentration 1000.0 nM
[20] = biological target: T1, Transient receptor potential cation channel subfamily M member 8 (Homo sapiens, UniProt Q7Z2W7); experiment: Voltage activation at 12 °C
[21] = biological target: Maternal embryonic leucine zipper kinase (Homo sapiens) (UniProt Q14680); conditions: Compound concentration 1000.0 nM
[22] = biological target: Ribosomal protein S6 kinase alpha-6 (Homo sapiens) (UniProt Q9UK32); conditions: Compound concentration 1000.0 nM
[23] = biological target: Homeodomain-interacting protein kinase 2 (Homo sapiens) (UniProt Q9H2X6); conditions: Compound concentration 1000.0 nM
[24] = biological target: Phosphatidylinositol 4,5-bisphosphate 3-kinase catalytic subunit delta isoform (Homo sapiens) (UniProt O00329); conditions: Compound concentration 1000.0 nM
[25] = biological target: Mitogen-activated protein kinase kinase kinase 7 (Homo sapiens) (UniProt O43318); conditions: Compound concentration 1000.0 nM
[26] = biological target: Inhibitor of nuclear factor kappa-B kinase subunit beta (Homo sapiens) (UniProt O14920); conditions: Compound concentration 1000.0 nM
[27] = biological target: Serine/threonine-protein kinase Sgk2 (Homo sapiens) (UniProt Q9HBY8); conditions: Compound concentration 1000.0 nM
[28] = biological target: Muscarinic acetylcholine receptor M3 (Homo sapiens) (UniProt P20309); conditions: Compound concentration 10.0 uM
[29] = biological target: Ephrin type-B receptor 4 (Homo sapiens) (UniProt P54760); conditions: Compound concentration 1000.0 nM
[30] = biological target: Mitogen-activated protein kinase kinase kinase 2 (Homo sapiens) (UniProt Q9Y2U5); conditions: Compound concentration 1000.0 nM
[31] = biological target: T1, Transient receptor potential cation channel subfamily M member 8; experiment: Transients WS-12 activation
[32] = biological target: Mitogen-activated protein kinase kinase kinase 3 (Homo sapiens) (UniProt Q99759); conditions: Compound concentration 1000.0 nM
[33] = biological target: Vascular endothelial growth factor receptor 3 (Homo sapiens) (UniProt P35916); conditions: Compound concentration 1000.0 nM
[34] = biological target: Death-associated protein kinase 1 (Homo sapiens) (UniProt P53355); conditions: Compound concentration 1000.0 nM
[35] = biological target: BMP-2-inducible protein kinase (Homo sapiens) (UniProt Q9NSY1); conditions: Compound concentration 1000.0 nM
[36] = biological target: 3-phosphoinositide-dependent protein kinase 1 (Homo sapiens) (UniProt O15530); conditions: Compound concentration 1000.0 nM
[37] = biological target: Homeodomain-interacting protein kinase 1 (Homo sapiens) (UniProt Q86Z02); conditions: Compound concentration 1000.0 nM
[38] = biological target: Cyclin-dependent kinase 8 (Homo sapiens) (UniProt P49336); conditions: Compound concentration 1000.0 nM
[39] = biological target: Cyclin-dependent kinase 16 (Homo sapiens) (UniProt Q00536); conditions: Compound concentration 1000.0 nM
[40] = system: Phosphatidylinositol 4,5-bisphosphate 3-kinase catalytic subunit alpha isoform (Homo sapiens), P42336 [I800L]; conditions: Compound concentration 1000.0 nM
[41] = biological target: Inhibitor of nuclear factor kappa-B kinase subunit epsilon (Homo sapiens) (UniProt Q14164); conditions: Compound concentration 1000.0 nM
[42] = system: ALK tyrosine kinase receptor (Homo sapiens), Q9UM73 [C1156Y]; conditions: Compound concentration 1000.0 nM
[43] = biological target: Mitogen-activated protein kinase 15 (Homo sapiens) (UniProt Q8TD08); conditions: Compound concentration 1000.0 nM
[44] = biological target: G protein-coupled receptor kinase 3 (Homo sapiens) (UniProt P35626); conditions: Compound concentration 1000.0 nM
[45] = biological target: Vascular endothelial growth factor receptor 2 (Homo sapiens) (UniProt P35968); conditions: Compound concentration 1000.0 nM

T1 sequence (Q7Z2W7 whole entry): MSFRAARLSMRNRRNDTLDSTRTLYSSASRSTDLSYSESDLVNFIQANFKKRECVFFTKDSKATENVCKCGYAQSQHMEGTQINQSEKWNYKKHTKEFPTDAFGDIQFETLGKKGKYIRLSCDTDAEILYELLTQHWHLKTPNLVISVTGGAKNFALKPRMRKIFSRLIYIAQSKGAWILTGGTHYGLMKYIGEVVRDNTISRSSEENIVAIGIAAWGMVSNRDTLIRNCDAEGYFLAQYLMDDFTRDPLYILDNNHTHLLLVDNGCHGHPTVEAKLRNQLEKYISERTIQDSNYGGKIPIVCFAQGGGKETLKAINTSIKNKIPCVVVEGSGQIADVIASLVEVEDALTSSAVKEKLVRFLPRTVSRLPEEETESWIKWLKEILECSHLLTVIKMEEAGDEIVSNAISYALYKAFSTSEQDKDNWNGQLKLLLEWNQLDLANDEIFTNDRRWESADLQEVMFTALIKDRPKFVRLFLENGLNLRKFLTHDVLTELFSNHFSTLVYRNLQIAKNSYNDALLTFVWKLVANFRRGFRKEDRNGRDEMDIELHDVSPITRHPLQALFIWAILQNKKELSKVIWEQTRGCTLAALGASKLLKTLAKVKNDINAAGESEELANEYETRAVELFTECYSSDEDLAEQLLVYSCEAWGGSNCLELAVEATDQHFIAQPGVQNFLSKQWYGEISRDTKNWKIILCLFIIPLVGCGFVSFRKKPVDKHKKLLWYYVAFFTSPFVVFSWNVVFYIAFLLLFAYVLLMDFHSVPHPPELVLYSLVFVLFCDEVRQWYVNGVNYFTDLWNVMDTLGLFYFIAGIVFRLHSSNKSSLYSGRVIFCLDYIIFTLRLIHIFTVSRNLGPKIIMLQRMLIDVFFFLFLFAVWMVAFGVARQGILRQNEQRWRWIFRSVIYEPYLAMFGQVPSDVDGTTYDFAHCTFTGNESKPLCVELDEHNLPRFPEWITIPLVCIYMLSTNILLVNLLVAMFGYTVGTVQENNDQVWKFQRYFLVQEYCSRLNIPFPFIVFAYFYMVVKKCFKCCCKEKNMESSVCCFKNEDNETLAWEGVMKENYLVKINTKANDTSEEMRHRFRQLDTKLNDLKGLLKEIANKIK
Sequence of Cyclin-dependent kinase 8 (Homo sapiens) (P49336 whole entry): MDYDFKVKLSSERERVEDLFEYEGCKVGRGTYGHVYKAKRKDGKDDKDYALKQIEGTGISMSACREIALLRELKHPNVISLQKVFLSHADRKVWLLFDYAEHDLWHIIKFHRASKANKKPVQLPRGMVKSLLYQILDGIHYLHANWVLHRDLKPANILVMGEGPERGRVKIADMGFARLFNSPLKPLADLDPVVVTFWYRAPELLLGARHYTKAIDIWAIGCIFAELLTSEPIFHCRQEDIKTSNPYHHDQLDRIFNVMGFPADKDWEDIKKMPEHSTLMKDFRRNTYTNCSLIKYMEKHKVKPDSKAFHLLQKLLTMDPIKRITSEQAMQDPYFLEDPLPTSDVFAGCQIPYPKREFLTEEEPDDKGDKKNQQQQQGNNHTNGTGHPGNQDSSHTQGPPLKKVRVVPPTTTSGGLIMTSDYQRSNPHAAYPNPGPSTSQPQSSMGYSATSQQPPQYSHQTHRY
Sequence of RAF proto-oncogene serine/threonine-protein kinase (Homo sapiens) (P04049 whole entry): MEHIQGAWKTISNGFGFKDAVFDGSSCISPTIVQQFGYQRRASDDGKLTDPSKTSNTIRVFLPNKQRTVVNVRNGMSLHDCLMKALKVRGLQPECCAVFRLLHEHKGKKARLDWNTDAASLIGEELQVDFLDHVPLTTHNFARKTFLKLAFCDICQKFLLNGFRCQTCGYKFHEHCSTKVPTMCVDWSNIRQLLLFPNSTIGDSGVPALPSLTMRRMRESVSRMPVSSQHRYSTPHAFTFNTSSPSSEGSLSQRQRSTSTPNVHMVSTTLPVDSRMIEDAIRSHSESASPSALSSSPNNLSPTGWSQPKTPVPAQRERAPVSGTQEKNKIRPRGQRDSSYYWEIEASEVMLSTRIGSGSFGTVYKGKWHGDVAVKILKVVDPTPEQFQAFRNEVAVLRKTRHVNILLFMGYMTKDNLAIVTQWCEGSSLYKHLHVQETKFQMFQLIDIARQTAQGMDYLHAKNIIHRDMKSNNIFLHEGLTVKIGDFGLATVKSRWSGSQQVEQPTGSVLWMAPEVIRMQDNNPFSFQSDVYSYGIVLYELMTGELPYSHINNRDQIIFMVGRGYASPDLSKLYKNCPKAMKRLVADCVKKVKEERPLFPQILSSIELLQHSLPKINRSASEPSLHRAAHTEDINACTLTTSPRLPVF
Sequence of Tyrosine-protein kinase ABL1 (Homo sapiens), P00519 [F317L] (P00519 whole entry F317L): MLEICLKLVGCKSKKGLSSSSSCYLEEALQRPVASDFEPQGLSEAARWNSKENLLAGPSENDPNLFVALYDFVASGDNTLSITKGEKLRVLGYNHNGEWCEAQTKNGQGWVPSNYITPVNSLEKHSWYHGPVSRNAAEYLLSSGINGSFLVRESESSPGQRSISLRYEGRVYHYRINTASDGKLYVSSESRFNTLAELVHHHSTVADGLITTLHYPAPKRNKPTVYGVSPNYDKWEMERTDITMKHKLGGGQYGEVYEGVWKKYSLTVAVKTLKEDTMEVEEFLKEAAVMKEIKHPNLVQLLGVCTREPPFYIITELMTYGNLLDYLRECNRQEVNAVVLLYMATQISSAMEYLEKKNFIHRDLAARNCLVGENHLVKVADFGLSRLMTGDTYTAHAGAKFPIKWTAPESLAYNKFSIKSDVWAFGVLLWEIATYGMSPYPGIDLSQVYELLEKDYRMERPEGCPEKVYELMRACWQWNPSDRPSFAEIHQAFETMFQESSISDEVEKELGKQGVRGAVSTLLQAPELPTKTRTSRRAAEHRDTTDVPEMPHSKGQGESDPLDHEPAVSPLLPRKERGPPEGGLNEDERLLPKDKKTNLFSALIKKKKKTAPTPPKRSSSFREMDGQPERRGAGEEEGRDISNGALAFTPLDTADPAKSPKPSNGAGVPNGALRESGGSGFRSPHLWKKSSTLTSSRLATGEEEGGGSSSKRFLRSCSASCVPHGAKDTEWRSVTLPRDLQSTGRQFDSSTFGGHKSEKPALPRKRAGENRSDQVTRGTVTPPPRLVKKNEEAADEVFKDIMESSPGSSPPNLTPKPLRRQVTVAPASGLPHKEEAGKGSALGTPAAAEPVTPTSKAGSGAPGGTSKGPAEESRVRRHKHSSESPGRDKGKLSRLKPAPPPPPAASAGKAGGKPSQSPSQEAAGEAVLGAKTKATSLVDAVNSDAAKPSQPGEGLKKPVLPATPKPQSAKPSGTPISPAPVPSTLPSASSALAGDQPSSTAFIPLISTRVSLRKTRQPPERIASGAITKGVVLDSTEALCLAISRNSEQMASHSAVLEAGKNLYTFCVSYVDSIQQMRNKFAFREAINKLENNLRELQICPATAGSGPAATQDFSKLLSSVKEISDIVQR
Sequence of Cyclin-dependent kinase 17 (Homo sapiens) (Q00537 whole entry, looked up): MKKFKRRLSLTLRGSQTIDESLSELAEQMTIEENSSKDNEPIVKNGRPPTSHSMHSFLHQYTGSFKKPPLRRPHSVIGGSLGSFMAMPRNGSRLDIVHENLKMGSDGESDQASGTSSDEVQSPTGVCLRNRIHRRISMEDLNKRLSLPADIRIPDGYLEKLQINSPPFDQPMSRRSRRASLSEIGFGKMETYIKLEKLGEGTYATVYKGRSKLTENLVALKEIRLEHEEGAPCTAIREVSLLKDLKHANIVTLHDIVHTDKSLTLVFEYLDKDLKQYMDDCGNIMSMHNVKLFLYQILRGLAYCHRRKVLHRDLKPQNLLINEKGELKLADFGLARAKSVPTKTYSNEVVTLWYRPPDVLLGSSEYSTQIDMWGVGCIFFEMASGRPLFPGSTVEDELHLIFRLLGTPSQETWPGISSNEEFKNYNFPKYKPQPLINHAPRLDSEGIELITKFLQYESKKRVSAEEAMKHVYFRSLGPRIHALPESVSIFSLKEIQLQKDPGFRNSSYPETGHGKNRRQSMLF
Sequence of Serine/threonine-protein kinase ICK (Homo sapiens) (Q9UPZ9 whole entry): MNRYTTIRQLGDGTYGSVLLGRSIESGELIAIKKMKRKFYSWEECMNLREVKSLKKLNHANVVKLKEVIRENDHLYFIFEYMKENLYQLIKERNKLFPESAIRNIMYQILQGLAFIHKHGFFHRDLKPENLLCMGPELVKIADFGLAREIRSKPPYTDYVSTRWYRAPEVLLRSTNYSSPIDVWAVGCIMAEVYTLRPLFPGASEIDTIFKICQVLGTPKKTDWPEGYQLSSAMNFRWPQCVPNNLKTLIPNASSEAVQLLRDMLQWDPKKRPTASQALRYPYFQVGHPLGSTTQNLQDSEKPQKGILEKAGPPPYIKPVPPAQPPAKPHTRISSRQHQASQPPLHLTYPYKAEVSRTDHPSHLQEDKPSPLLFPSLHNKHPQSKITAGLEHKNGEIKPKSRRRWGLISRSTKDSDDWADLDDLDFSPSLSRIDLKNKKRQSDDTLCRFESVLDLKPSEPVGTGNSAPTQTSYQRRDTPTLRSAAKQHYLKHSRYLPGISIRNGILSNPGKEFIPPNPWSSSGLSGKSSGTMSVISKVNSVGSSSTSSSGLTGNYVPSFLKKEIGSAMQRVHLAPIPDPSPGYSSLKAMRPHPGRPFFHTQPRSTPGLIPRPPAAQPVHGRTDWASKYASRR
Sequence of Serine/threonine-protein kinase Sgk2 (Homo sapiens) (Q9HBY8 whole entry): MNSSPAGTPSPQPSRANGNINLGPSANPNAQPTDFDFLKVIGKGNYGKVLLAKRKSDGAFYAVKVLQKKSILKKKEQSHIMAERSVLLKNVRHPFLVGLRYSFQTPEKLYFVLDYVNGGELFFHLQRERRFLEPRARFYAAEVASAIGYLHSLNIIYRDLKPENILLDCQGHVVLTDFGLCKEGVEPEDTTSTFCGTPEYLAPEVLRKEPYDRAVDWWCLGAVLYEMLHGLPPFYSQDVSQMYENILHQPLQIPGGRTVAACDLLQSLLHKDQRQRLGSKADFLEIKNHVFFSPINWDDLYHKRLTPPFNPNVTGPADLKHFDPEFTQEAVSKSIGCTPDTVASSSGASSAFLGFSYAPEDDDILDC
Sequence of Tyrosine-protein kinase ABL1 (Homo sapiens), P00519 [F317I] (P00519 whole entry F317I): as the sequence (P00519 whole entry F317L) above, with L317I counted along it

`C[C@H](c1ccc(F)cc1)N(Cc1cccc(C(=O)O)c1)C(=O)c1cnc2ccccc2c1` [PF-05105679] showed a residual activity [1] of 92%, a residual activity [2] of 93% and a residual activity [3] of 84%. For the same compound, the residual activity [4] was 100%, the residual activity [5] was 100% and the residual activity [6] was 98%. The residual activity [7] was 100%, the residual activity [8] was 100% and the residual activity [9] was 82%. It also gave a residual activity [10] of 100%, a residual activity [11] of 100% and a residual activity [12] of 99%. For the same compound, the residual activity [13] was 85%, the inhibition (Rattus norvegicus) was 70% and the residual activity [14] was 100%. It also gave a residual activity [15] of 90%, a residual activity [16] of 100% and a residual activity [17] of 100%. The residual activity [18] was 100%, the residual activity [19] was 100% and the IC50 [20] was 13.8 nM (active). For the same compound, the residual activity [21] was 100%, the residual activity [22] was 100% and the residual activity [23] was 100%. It also gave a residual activity [24] of 100%, a residual activity [25] of 100% and a residual activity [26] of 100%. The residual activity [27] was 93%, the inhibition [28] was -7.68% and the residual activity [29] was 100%. The residual activity [30] was 100%, the IC50 [31] was 29.6 nM (active) and the residual activity [32] was 100%. For the same compound, the residual activity [33] was 95%, the residual activity [34] was 97% and the residual activity [35] was 96%. For the same compound, the residual activity [36] was 100%, the residual activity [37] was 100% and the residual activity [38] was 100%. The residual activity [39] was 100%, the residual activity [40] was 61% and the residual activity [41] was 79%. It also gave a residual activity [42] of 69%, a residual activity [43] of 93% and a residual activity [44] of 40%. For the same compound, the residual activity [45] was 100%.
